Results published in US20140135310A1, “SULPHONAMIDE DERIVATIVES OF ALICYCLIC AMINES FOR THE TREATMENT OF CENTRAL NERVOUS SYSTEM DISEASES” (Adamed Sp. z o.o., priority 2011, published 2014).

Assays:
[1] = biological target: D2 dopaminergic receptors (Homo sapiens, UniProt P14416); test: Cellular functional assay, D2 dopaminergic receptors; assay type: cell-based; conditions: D2S (h), HEK-293 cells; for D2 ag [%]: agonism, percent of control specific agonist response (3 μM dopamine for control); for D2 antag [%]: antagonism, stimulus dopamine (30 nM)
Protocol: The results are expressed as a percent of control specific agonist response ((measured specific response/control specific agonist response)×100) obtained in the presence of the test compounds.
The EC50 values (concentration producing a half-maximal specific response) and IC50 values (concentration causing a half-maximal inhibition of the control specific agonist response) were determined by non-linear regression analysis of the concentration-response curves generated with mean replicate values using Hill equation curve fitting (Y=D+[(A−D)/(1+(C/C50)nH)], where Y=specific response, D=minimum specific response, A=maximum specific response, C=compound concentration, and C50=EC50 or IC50, and nH=slope factor). This analysis was performed using a software developed at Cerep (Hill software) and validated by comparison with data generated by the commercial software SigmaPlot® 4.0 for Windows® (© 1997 by SPSS Inc.).
For the antagonists, the apparent dissociation constants (Kb) were calculated using the modified Cheng Prusoff equation (Kb=IC50/(1+(A/EC50A)), where A=concentration of reference agonist in the assay, and EC50A=EC50 value of the reference agonist).

receptors D4.4 = biological target: T1, receptors D4.4 (Homo sapiens, UniProt P21917); test: Radioligand binding assay, dopaminergic D4 (D4.4) receptors; conditions: test compound 1×10^−6 M
T1 sequence (P21917 1-419): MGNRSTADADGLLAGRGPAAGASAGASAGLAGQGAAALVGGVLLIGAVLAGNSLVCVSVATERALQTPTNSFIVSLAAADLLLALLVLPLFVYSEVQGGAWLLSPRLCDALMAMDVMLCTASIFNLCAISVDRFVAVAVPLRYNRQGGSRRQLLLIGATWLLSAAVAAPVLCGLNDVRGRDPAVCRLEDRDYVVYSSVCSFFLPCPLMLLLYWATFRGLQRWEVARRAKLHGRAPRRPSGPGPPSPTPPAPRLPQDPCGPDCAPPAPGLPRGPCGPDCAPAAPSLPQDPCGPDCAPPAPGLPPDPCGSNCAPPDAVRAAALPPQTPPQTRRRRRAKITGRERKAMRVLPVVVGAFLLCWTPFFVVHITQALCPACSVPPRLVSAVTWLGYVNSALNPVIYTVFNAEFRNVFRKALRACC
From the text: (§1) The specific ligand binding to the receptors is defined as the difference between the total binding and the non-specific binding determined in the presence of the excess of unlabelled ligand.
(§2) The results are expressed as a percent of control specific binding ((measured specific binding/control specific binding)×100) and as a percent inhibition of control specific binding (100−((measured specific binding/control specific binding)×100)) obtained in the presence of the test compounds. The specific ligand binding to the receptors is defined as the difference between the total binding and the nonspecific binding determined in the presence of an excess of unlabelled ligand. Scintillation counting was the method of detection of ligand binding. The IC50 values (concentration causing a half-maximal inhibition of control specific binding) were determined by non-linear regression analysis of the competition curves generated with mean replicate values using Hill equation curve fitting (Y=D+[(A−D)/(1+(C/C50)nH)], where Y=specific binding, D=minimum specific binding, A=maximum specific binding, C=compound concentration, C50=IC50, and nH=slope factor). This analysis was performed using a software developed at Cerep (Hill software) and validated by comparison with data generated by the commercial software SigmaPlot® 4.0 for Windows® (© 1997 by SPSS Inc.). The inhibition constants (Ki) were calculated using the Cheng Prusoff equation (Ki=IC50/(1+(L/KD)), where L=concentration of radioligand in the assay, and KD=affinity of the radioligand for the receptor). A scatchard plot was used to determine the Kd.
Experimental conditions for tests are given in Table 1, the results of tests for representative compounds are given in Tables 2a and 2b (receptors D2 and D3) and in Table 3 (receptors D4).

5-HT7 receptor = biological target: T2, 5-HT7 receptor (Homo sapiens, UniProt P34969); test: Radioligand binding assay, serotoninergic 5-HT7 receptors; conditions: binding assay result in %, Table 5a
T2 construct: purchased PerkinElmer
Outline: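 Ki values used the Cheng–Prusoff equation, with KD from Scatchard analysis, applied to IC50 from Hill fits of human 5-HT7 radioligand competition curves. Bound radioligand was counted by scintillation, and excess unlabelled ligand set the non-specific binding.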

[2] = biological target: T3, serotonin transporter (SERT) (Homo sapiens, UniProt P31645); test: Radioligand binding assay, serotonin transporter (SERT); conditions: for inhibition at 1 µM / SERT [%]: binding assay, test compound 1×10^−6 M
T3 construct: expressed in transfected cells; host or cells: CHO cells
Outline: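 Values are derived from competition curves fitted by the Hill equation to give IC50, then converted to Ki by Cheng-Prusoff with radioligand Kd from Scatchard analysis. Specific binding equals total minus non-specific (excess cold ligand), counted by scintillation, and is also expressed as percent inhibition of control.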

5-HT6 receptor = biological target: T4, 5-HT6 receptor (Homo sapiens, UniProt P50406); test: Radioligand binding assay, serotoninergic 5-HT6 receptors; conditions: for inhibition at 1 µM / 5-HT6 [%]: binding assay result in %, Table 5a
T4 construct: purchased PerkinElmer
Outline: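 Values are Ki from Cheng–Prusoff, taking IC50 from Hill nonlinear regression of competition curves and KD from a Scatchard plot. Specific binding was total minus binding with excess unlabelled ligand. Radioligand displacement was detected by scintillation counting, and data were also reported as percent of control specific binding.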

α2C adrenergic receptors = biological target: T5, α2C adrenergic receptors (Homo sapiens, UniProt P18825); test: Radioligand binding assay, adrenergic α2C receptors; conditions: test compound 1×10^−6 M
T5 construct: expressed in transfected cells; host or cells: CHO cells
T5 sequence (P18825 1-462): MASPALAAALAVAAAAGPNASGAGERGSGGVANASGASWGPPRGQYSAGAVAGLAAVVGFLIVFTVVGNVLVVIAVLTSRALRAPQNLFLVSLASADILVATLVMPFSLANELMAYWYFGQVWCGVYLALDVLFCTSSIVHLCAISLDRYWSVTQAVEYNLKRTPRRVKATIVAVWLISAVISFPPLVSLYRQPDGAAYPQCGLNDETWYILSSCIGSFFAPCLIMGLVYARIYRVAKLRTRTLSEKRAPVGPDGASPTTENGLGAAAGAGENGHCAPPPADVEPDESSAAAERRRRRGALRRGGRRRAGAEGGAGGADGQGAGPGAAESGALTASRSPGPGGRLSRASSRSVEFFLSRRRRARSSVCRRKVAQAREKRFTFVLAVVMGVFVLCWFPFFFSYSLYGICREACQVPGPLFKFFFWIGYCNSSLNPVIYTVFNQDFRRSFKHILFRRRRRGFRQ
From the text: as §1, §2
Experimental conditions for tests are given in Table 7, and results of tests for representative compounds are given in Tables 8 (α1 receptors) and in Tables 9 (α2C receptors).

D2 dopaminergic receptors, sequence (P14416 whole entry): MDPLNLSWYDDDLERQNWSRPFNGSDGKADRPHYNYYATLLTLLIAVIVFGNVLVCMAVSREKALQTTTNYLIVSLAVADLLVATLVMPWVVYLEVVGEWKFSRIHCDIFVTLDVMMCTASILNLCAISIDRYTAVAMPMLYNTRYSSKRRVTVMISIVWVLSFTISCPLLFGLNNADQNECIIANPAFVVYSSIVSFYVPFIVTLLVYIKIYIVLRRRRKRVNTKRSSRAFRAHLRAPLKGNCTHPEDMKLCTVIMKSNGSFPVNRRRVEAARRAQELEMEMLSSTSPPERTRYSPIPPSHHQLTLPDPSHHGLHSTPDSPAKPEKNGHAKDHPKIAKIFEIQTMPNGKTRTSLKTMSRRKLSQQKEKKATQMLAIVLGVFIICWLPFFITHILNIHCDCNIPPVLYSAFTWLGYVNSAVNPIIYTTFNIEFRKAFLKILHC
T3 sequence (P31645 whole entry): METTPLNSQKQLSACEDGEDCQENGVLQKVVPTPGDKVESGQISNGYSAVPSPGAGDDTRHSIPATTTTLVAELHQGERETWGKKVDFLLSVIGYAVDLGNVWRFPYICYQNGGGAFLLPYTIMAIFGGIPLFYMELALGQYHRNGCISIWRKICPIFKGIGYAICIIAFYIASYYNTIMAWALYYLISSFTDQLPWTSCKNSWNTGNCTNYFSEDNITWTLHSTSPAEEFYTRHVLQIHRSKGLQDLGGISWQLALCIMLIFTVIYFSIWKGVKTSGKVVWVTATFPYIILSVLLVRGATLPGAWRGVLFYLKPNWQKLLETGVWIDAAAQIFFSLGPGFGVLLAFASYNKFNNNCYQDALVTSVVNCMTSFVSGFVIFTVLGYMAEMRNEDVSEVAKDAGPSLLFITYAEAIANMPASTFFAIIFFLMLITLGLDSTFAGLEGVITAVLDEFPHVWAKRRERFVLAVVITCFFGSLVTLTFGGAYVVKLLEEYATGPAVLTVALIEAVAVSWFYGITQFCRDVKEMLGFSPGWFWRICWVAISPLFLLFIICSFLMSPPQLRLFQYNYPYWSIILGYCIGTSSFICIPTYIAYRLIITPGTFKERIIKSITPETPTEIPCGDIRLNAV
T4 sequence (P50406 whole entry): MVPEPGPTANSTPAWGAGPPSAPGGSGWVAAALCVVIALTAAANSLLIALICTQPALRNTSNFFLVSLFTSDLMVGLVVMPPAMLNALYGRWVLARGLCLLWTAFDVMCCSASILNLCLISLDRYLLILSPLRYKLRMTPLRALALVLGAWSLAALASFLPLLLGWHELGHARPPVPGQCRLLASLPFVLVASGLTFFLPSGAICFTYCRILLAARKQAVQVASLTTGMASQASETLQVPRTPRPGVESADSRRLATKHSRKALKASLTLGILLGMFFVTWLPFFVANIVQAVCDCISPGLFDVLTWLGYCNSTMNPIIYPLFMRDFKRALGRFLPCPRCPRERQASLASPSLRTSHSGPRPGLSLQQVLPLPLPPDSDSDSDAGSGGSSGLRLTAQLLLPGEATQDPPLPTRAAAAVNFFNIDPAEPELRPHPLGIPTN
T2 sequence (P34969 whole entry): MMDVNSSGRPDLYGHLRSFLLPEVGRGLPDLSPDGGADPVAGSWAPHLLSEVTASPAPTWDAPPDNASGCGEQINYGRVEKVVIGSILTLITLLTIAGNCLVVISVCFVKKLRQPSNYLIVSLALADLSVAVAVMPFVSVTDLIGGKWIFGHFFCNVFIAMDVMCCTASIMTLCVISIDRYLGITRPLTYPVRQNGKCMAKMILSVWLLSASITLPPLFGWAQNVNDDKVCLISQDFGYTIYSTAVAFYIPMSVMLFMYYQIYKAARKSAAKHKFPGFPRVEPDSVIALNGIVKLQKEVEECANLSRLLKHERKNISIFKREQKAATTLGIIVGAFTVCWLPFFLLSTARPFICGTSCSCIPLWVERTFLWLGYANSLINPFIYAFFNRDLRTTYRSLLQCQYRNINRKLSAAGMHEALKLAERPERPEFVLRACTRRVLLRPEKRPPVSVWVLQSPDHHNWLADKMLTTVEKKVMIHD

Row | Compound | D2 ag [%] [1] | D2 antag [%] [1] | inhibition at 1 µM (receptors D4.4) | inhibition at 1 µM (5-HT7 receptor) | inhibition at 1 µM [2] | inhibition at 1 µM (5-HT6 receptor) | inhibition at 1 µM (α2C adrenergic receptors) | D4.4 [%] (receptors D4.4) | 5-HT7 [%] (5-HT7 receptor) | SERT [%] [2] | 5-HT6 [%] (5-HT6 receptor) | α2C [%] (α2C adrenergic receptors) | Ki (5-HT6 receptor; read-out: Inhibition constants Ki, 5-HT6) | Ki ([2]; read-out: Inhibition constants Ki for SERT, SERT)
1 | O=S(=O)(NC1CN(CCOc2cccc3[nH]ccc23)C1)c1ccc2ccccc2c1 [Compound 50, N-[1-[2-(1H-Indol-4-yloxy)ethyl]azetidin-3-yl]naphthalene-2-sulphonamide] | 56% | 92% | 94% | 99% | 20% | 43% | 108% |  |  |  |  |  |  | 
2 | O=S(=O)(NC1CN(CCOc2cccc3[nH]ccc23)C1)c1cccc2ccccc12 [Compound 49, N-[1-[2-(1H-Indol-4-yloxy)ethyl]azetidin-3-yl]naphthalene-1-sulphonamide] | 57% | 97% | 82% | 100% | 41% | 34% | 110% |  |  |  |  |  |  | 
3 | O=S(=O)(NC1CN(CCOc2cccc3c2OCCO3)C1)c1cccc2ccccc12 [Compound 94, N-[1-[2-(2,3-Dihydro-1,4-benzodioxan-8-yloxy)ethyl]azetidin-3-yl]-naphthalene-1-sulphonamide] | 45% | 99% |  |  |  |  |  | 90% | 100% | 62% | 65% | 106% |  | 
4 | N-[[1-[2-[(2,2-Dimethyl-3H-benzofuran-7-yl)oxy]ethyl]azetidin-3-yl]methyl]-3-hydroxy-benzenesulphonamide [Compound 111] | 36% | 89% |  |  |  |  |  | 61% | 100% | 15% | 41% | 90% |  | 
5 | COc1ccc2cc(S(=O)(=O)N[C@H]3CCN(CCCc4noc5cc(F)ccc45)C3)ccc2c1 [Compound 231, N-[(3S)-1-[3-(6-Fluoro-1,2-benzoxazol-3-yl)propyl]pyrrolidin-3-yl]-6-methoxy-naphthalene-2-sulphonamide] | 13% | 49% | 89% | 88% | 63% | 86% | 89% |  |  |  |  |  | 79 nM | 
6 | O=S(=O)(NCC1CN(CCOc2cccc3c2OCCO3)C1)c1ccc(Cl)c(Cl)c1 [Compound 183, 3,4-Dichloro-N-[[1-[2-(2,3-dihydro-1,4-benzodioxin-5-yloxy)ethyl]azetidin-3-yl]methyl]benzenesulphonamide] | 8% | 53% | 80% | 102% | 48% | 81% | 99% |  |  |  |  |  |  | 
7 | CC1(C)Cc2cccc(OCCN3CCC(NS(=O)(=O)c4cccc(O)c4)CC3)c2O1 [Compound 109, N-[1-[2-[(2,2-Dimethyl-3H-benzofuran-7-yl)oxy]ethyl]-4-piperidine]-3-hydroxy-benzenesulphonamide] |  |  |  |  |  |  |  | 69% | 99% | −10% | 67% | 98% |  | 
8 | Cc1c(S(=O)(=O)NC2CCN(CCCc3noc4cc(F)ccc34)C2)sc2ccc(Cl)cc12 (stereo not shown) [Compound 29, 5-Chloro-N-[1-[3-(6-fluoro-1,2-benzoxazol-3-yl)propyl]pyrrolidin-3-yl]-3-methyl-benzothiophene-2-sulphonamide] |  |  | 16% | 52% | 44% | 92% | 84% |  |  |  |  |  |  | 
9 | CC1(C)Cc2cccc(OCCN3CCC(NS(=O)(=O)c4ccc5ccccc5c4)CC3)c2O1 [Compound 110, N-[1-[2-[(2,2-Dimethyl-3H-benzofuran-7-yl)oxy]ethyl]-4-piperidine]naphthalene-2-sulphonamide] |  |  |  |  |  |  |  | 42% | 99% | 39% | −60% | 98% |  | 
10 | O=S(=O)(NC1CN(CCOc2cccc3c2OCCO3)C1)c1cccc(F)c1 [Compound 89, N-[1-[2-(2,3-Dihydro-1,4-benzodioxan-8-yloxy)ethyl]azetidin-3-yl]-3-fluoro-benzenesulphonamide] |  |  |  |  |  |  |  | 22% | 96% | 3% | 19% | 69% |  | 
11 | O=S(=O)(NCC1CN(CCCc2noc3cc(F)ccc23)C1)c1ccc(-c2ccccc2)cc1 [Compound 135, N-[[1-[3-(6-Fluoro-1,2-benzoxazol-3-yl)propyl]azetidin-3-yl]methyl]-4-phenyl-benzenesulphonamide] |  |  | 60% | 97% | 68% | 92% | 95% |  |  |  |  |  |  | 
12 | O=S(=O)(NCC1CCN(CCOc2cccc3c2OCCO3)C1)c1ccc(C(F)(F)F)cc1 (stereo not shown) [Compound 293, N-[[1-[2-(2,3-Dihydro-1,4-benzodioxin-5-yloxy)ethyl]pyrrolidin-3-yl]methyl]-4-(trifluoromethyl)benzenesulphonamide] |  |  | 35% | 90% | 82% | 47% | 95% |  |  |  |  |  |  | 
13 | O=S(=O)(NC1CCN(CCCc2c[nH]c3ccc(F)cc23)C1)c1cccc2ccccc12 (stereo not shown) [Compound 79, N-[1-[3-(5-Fluoro-1H-indol-3-yl)propyl]pyrrolidin-3-yl]naphthalene-1-sulphonamide] |  |  | 92% | 96% | 105% | 86% | 96% |  |  |  |  |  |  | 0.7 nM
